Test results taken from paper PMC5481270, “Antiparasitic Sesquiterpenes from the Cameroonian Spice Scleria striatinux and Preliminary In Vitro and In Silico DMPK Assessment” (Natural Products and Bioprospecting, 2017).
Converted amounts (≈) assume the structure as drawn. Like-named read-outs stand apart in the source and are kept apart here.

Columns and labels:
[1] = test system: Plasmodium falciparum NF54 (chloroquine-sensitive); assay: Antiplasmodial [3H] hypoxanthine incorporation assay, NF54 strain; type: cell-based; details: for IC50: Plasmodium falciparum
From the text: (§1) The antiplasmodial testing of the extracts was run in duplicate. The method was based upon the [^3H] hypoxanthine incorporation assay, as described by Desjardins and modified by Ridley and the data fitted to generate IC50 and IC90 values, corresponding to the concentrations required to cause 50 and 90% inhibition of parasite growth respectively. The Plasmodium falciparum clones used for the testing were W-2 and D-6. W-2 strain otherwise known as the Indochina clone is known to be resistant to chloroquine, pyrimethamine, sulfadoxine and quinine. Meanwhile the D-6 otherwise known as the Sierra Leonian clone is resistant to mefloquine but sensitive to the above named drugs. Chloroquine, quinine and artesunate were used as reference drugs. […] Compounds 1 and 2 (due to their quantity) were subsequently tested against T. cruzi, L. donovani and T. b. rhodensiense, parasites responsible for Chagas disease, leishmaniasis and human African trypanosomiasis (sleeping sickness) respectively with Benznidazole, Miltefosine and Melarsoprol included as reference drugs. Cytotoxicity was evaluated using HT-29 (human […] carcinoma) with podophyllotoxin as reference drug.
(§2) The crude S. striatinux extracts (MeOH and CH2Cl2) were tested at the Walter Reed Army Institute of Research (WRAIR), Washington. DC. […] The method used for antiplasmodial testing, was based upon [^3H] hypoxanthine incorporation assay, previously described in the literature. Both chloroquine-sensitive (NF54, D6) and chloroquine-resistant (K1, W2) strains and chloroquine, quinine and artesunate used as positive references. L. donovani MHOM-ET-67/L82 (obtained from the spleen of an infected hamster and grown in axenic cultures) was used for the antileishmanial testing while T. brucei squib 427 strain (suramin-sensitive) was used for the antitrypanosomal testing. Cytotoxicity test was done using HT-29 (human […] carcinoma), with podophyllotoxin included as reference drug at a concentration of 0.1 μg/mL.

[2] = test system: Plasmodium falciparum D-6 (chloroquine-sensitive, Sierra Leonian clone); assay: Antiplasmodial [3H] hypoxanthine incorporation assay, D6 clone; type: cell-based
From the text: as §1, §2

[3] = test system: Plasmodium falciparum W-2 (chloroquine-resistant, Indochina clone); assay: Antiplasmodial [3H] hypoxanthine incorporation assay, W2 clone; type: cell-based
From the text: as §1, §2

[4] = Kinetic solubility, turbidimetric method (nephelometry); type: physicochemical; details: kinetic from dmso stock, 1% DMSO
Description: The solubility of the compounds was estimated via the turbidimetric method using standard test buffers (pH 2.0 and pH 6.5) as previously described. […] There was no significant change in ionization in the molecule across this pH range.
(§3) The kinetic solubility of test compounds was examined by spiking compound in DMSO into either pH 6.5 phosphate buffer or 0.01 M HCl (approximately pH 2.0) with the final DMSO concentration being 1%. Samples were then analysed via nephelometry to determine a solubility range [23]. Effective log D values were measured using a chromatographic method employing a SUPELCOSIL LC-ABZ column using an octanol saturated mobile phase at pH 7.4 [23]. Theoretical physicochemical values were determined using the ACD logD suite of software programs. The molecular weight (MW) should ideally be ≤500 for good membrane permeability, while the hydrogen bond donor/acceptor properties should be respectively ≤5 and ≤10 respectively. The number of single bonds that are not in a ring or constrained system and are not bonded to a hydrogen atom (often referred to as the number of rotatable single bonds) should be ≤10 for acceptable oral bioavailability. The polar surface area (PSA) was calculated using a simplified 2-dimensional modeling approach, which has been validated against a more sophisticated 3-dimentional modeling strategy. For acceptable oral drug absorption and membrane permeability, the PSA value should be ≤120 Å^2. […] The 1-octanol/water partition coefficient were calculated for ionisable compounds. The values were calculated on the basis of log P and pKa values. Log D values are quoted with respect to a relevant pH, thereby providing a partition coefficient profile under physiologically relevant conditions.

[5] = test system: Plasmodium falciparum K1 (chloroquine-resistant); assay: Antiplasmodial [3H] hypoxanthine incorporation assay, K1 strain; type: cell-based; details: P. falciparum K1, results from STI
From the text: as §1
(§4) The crude S. striatinux extracts (MeOH and CH2Cl2) were tested at the Walter Reed Army Institute of Research (WRAIR), Washington. DC. […]

T. cruzi = assay: Antitrypanosomal testing, T. cruzi; type: cell-based, Trypanosoma cruzi; details: calculated versus cytotoxicity (HT-29)
From the text: as §1, §4

T. b. rhodesiense = assay: Antitrypanosomal testing, T. b. rhodesiense; type: cell-based, Trypanosoma brucei rhodesiense; details: calculated versus cytotoxicity (HT-29)
From the text: as §1, §4

[6] = Chromatographic eLogD technique; type: physicochemical; details: for chromatographic logD: SUPELCOSIL LC-ABZ column with octanol saturated mobile phase, pH 7.4
Description: The partition coefficients of the two compounds were measured via the previously described chromatographic technique. […] The LogD7.4 value for compound 2 of 0.35 is towards the lower end of the scale normally associated with “drug-like” molecules. […] For compound 2, parameters were also calculated for its terminal aldehyde tautomer, 2a, which is presumed to be the major form of the compound. The overall calculated parameters fall within the ranges associated with “drug-like” molecules.
as §3

[7] = Metabolic stability in human liver microsomes; type: in vitro ADME; details: for Metabolites detected: LCMS; for microsomal CLint at 2 µM: NADPH dependent degradation, 37 °C, read-out: In vitro CL int; for Microsome predicted E H (hepatic extraction ratio): Q = 20.7 mL/min/kg; for CLint scaled at 2 µM: scaled from in vitro CL int, read-out: Microsome predicted CL int
From the text: The objective here was to determine the in vitro metabolic stability of these two compounds using human liver microsomes as a preliminary indication of their likely in vivo metabolic clearance and potential metabolic products. The method used was as outlined in Obach. […] The compounds maybe susceptible to […] in more complicated test systems based on their structure, since both compounds 1 and 2 contain an α, β-unsaturated ketone moiety with the potential to act as a Michael acceptor (by forming adducts with endogenous nucleophiles such as glutathione). However, this was not investigated and would be the subject of future studies in which we hope to use a simple chemical system (i.e., in aqueous buffer containing free glutathione) or examining the extent of degradation in whole blood.
Test compounds (2 µM) were incubated at 37 °C with human liver microsomes [purchased from BD Gentest (Woburn, MA) using microsome lot # 41207]. The reaction was initiated by the addition of an NADPH-regenerating system (i.e. NADPH is the cofactor required for CYP450-mediated metabolism) and quenched at various time points over the incubation period by the addition of acetonitrile. Additional samples co-activated by NADPH and UDPGA (the co-factor for glucoronidation), were included in the incubation for the qualitative assessment of the potential for glucoronide formation. The relative loss of parent compound and formation of metabolic products was determined using a single quadrupole LCMS instrument (Waters, Manchester, UK).
Test compound concentration versus time data was fitted to an exponential decay function to determine the first-order rate constant for substrate depletion (k). Each substrate depletion rate constant was then used to calculate: (1) an initial in vitro clearance value (in vitro, CL int,in vitro); (2) an intrinsic clearance value (CL int); and (3) a hepatic extraction ratio (E H)1 CLint,invitro=k/microsomalproteincontent(0.4mgprotein/mL) 2 CLint=CLint,invitro×livermass(g)/bodyweight(kg)×45mgmicrosomalprotein/glivermass 3 EH=CLint/Q+CLint For Eqs.

[8] = test system: L. donovani MHOM-ET-67/L82; assay: Antileishmanial testing; type: cell-based, Leishmania donovani; details: calculated versus cytotoxicity (HT-29)
From the text: as §1, §4

[9] = P. falciparum NF54, results from STI, read-out: IC50 NF54
[10] = aqueous buffer, pH 6.5 phosphate buffer, read-out: Solubility pH 6.5
[11] = simulated gastric fluid, pH 2 (0.01 M HCl), read-out: Solubility pH 2
[12] = P. falciparum D6, mean of 2–3 determinations, results from WRAIR, read-out: IC50 D6
[13] = P. falciparum W2, mean of 2–3 determinations, results from WRAIR, read-out: IC50 W2

With `C[C@H]1[C@H](OC(=O)CCC(=O)O)O[C@@H]2O[C@@]3(C)CC[C@H]4[C@H](C)CC[C@@H]1[C@@]24OO3` [Artesunate, reference compound] the IC50 [1, 9] was 0.0019 µg/mL (≈ 0.00494 µM).

With `CCN(CC)CCCC(C)Nc1ccnc2cc(Cl)ccc12` (centres unmarked) [Chloroquine, reference compound] the IC50 ([2]; D6, read-out: IC50 D6) was 0.003 µg/mL (≈ 0.00938 µM), the IC50 ([1]; NF54, read-out: IC50 NF54) was 0.0023 µg/mL (≈ 0.00719 µM) and the IC50 ([3]; W2, read-out: IC50 W2) was 0.084 µg/mL (≈ 0.263 µM).

In the case of `C/C(=C\CO)[C@H]1C[C@H]2C(C)(C)C(=O)C=C[C@]2(C)OO1` [Compound 1, okundoperoxide], the solubility [4, 10] is reported as > 100 µg/mL, the solubility [4, 11] is reported as > 100 µg/mL and the IC50 [5] is reported as 0.661 µg/mL (≈ 2.48 µM). The “SI (selective index) T. cruzi” value (T. cruzi) was 1, the IC50 [2, 12] was 0.195 µg/mL (≈ 0.732 µM) and the “SI (selective index) T. b. rhod” value (T. b. rhodesiense) was 3.4. For the same molecule, the IC50 [1, 9] was 0.304 µg/mL (≈ 1.14 µM), the “elogD pH 7.4” value [6] was 1.71 and the chromatographic logD [6] was 1.71. For the same molecule, the Metabolites detected [7] was “None detected”, the microsomal CLint at 2 µM [7] was 12.3 µL/min/mg and the “Microsome predicted E H (hepatic extraction ratio)” value [7] was 0.41. For the same molecule, the CLint scaled at 2 µM [7] was 14.3 mL/min/kg, the IC50 [3, 13] was 0.268 µg/mL (≈ 1.01 µM) and the “SI (selective index) L. donovani” value [8] was 11.4.

With `C/C(=C\CO)C(=O)C[C@H]1C(C)(C)C(=O)C=C[C@]1(C)O` [Compound 2, sclerienone C] the solubility [4, 10] was > 100 µg/mL, the solubility [4, 11] was 50 to 100 µg/mL (≈ 188 to 375 µM) and the IC50 [5] was 0.511 µg/mL (≈ 1.92 µM). For the same molecule, the “SI (selective index) T. cruzi” value (T. cruzi) was 0.74, the IC50 [2, 12] was 0.267 µg/mL (≈ 1 µM) and the “SI (selective index) T. b. rhod” value (T. b. rhodesiense) was 8.3. For the same molecule, the IC50 [1, 9] was 0.439 µg/mL (≈ 1.65 µM), the “elogD pH 7.4” value [6] was 0.35 and the chromatographic logD [6] was 0.35. For the same molecule, the Metabolites detected [7] was “None detected”, the microsomal CLint at 2 µM [7] was 7.4 µL/min/mg and the “Microsome predicted E H (hepatic extraction ratio)” value [7] was 0.29. For the same molecule, the CLint scaled at 2 µM [7] was 8.6 mL/min/kg, the IC50 [3, 13] was 0.354 µg/mL (≈ 1.33 µM) and the “SI (selective index) L. donovani” value [8] was 5.9.

For `CCCCCCCCCC(=O)OC/C=C(\C)C(=O)C[C@H]1C(C)(C)C(=O)C=C[C@]1(C)O` [Compound 3], the IC50 [2, 12] was 0.539 µg/mL (≈ 1.28 µM), the IC50 [1, 9] was > 1 µg/mL and the IC50 [3, 13] was 0.46 µg/mL (≈ 1.09 µM).

With `C=CC(C)(O)C(=O)C[C@H]1C(C)(C)C(=O)C=C[C@]1(C)O` (some centres unmarked) [Compound 4] the IC50 [1, 9] was > 1 µg/mL.

With `C=CC(C)(O)C(=O)C[C@H]1C(C)(C)C(=O)C=C[C@]1(C)O` (some centres unmarked) [Compound 5] the “IC50 NF54” value ([1]; P. falciparum NF54, results from STI) was >1 µg/mL.

For `C=CC(C)(O)C1C[C@H]2C(C)(C)C(=O)C=C[C@]2(C)OO1` (some centres unmarked) [Compound 6], the IC50 [2, 12] was 0.483 µg/mL (≈ 1.81 µM), the IC50 [1, 9] was > 1 µg/mL and the IC50 [3, 13] was 0.47 µg/mL (≈ 1.76 µM).

Molecule `C=C[C@H]1C[N@@]2CC[C@H]1C[C@H]2[C@H](O)c1ccnc2ccc(OC)cc12` [Quinine, reference compound] has an IC50 [2, 12] of 0.027 µg/mL (≈ 0.0832 µM) and an IC50 [3, 13] of 0.097 µg/mL (≈ 0.299 µM).
